From US20050239751A1, “Heterocyclic anti-viral compounds comprising metabolizable moieties and their uses” (Rigel Pharmaceuticals, Inc., priority 2004, published 2005)
Where two headings read alike, the source gives them in different places.

Experiments:
[1] = test system: HCV replicon in 5-2 Luc replicon-comprising cells; test: HCV replicon assay (luciferase; HEPC_REPLICON-LUC); type: cell-based, Hepatitis C virus; conditions: read-out: Replicon (IC50)
Description: In one embodiment, the inhibitory activity of the metabolically active agent of the prodrug can be confirmed in a replicon assay that assesses the ability of a test compound to block or inhibit HCV replication in replicon cells. One example of a suitable replicon assay is the liver cell-line Huh 7-based replicon assay described in Lohmann et al., 1999, Science 285:110-113. A specific example of this replicon assay which utilizes luciferase translation is provided in the Examples Section. In one embodiment of this assay, the amount of test prodrug that yields a 50% reduction in translation as compared to a control cell (IC50) may be determined.
The inhibitory activity of certain prodrugs of the invention, which may inhibit HCV translation or replication prior to metablism and/or are metabolized into active agents, was confirmed using an HCV replicon assay. The HCV replicon can include such features as the HCV 5′ untranslated region including the HCV IRES, the HCV 3′ untranslated region, selected HCV genes encoding HCV polypeptides, selectable markers, and a reporter gene such as luciferase, GFP, etc. In the assay, actively dividing 5-2 Luc replicon-comprising cells (obtained from Ralf Bartenschlager; see Lohmann et al., 1999, Science 285:110-113) were seeded at a density of between about 5,000 and 7,500 cells/well onto 96 well plates (about 90 µl of cells per well) and incubated at 37° C. and 5% CO2 for 24 hours. Then, the test prodrug (in a volume of about 10 PI) was added to the wells at various concentrations and the cells were incubated for an additional 24-48 hours before luciferase assay. The media was aspirated from each well and Bright-Glo (Promega, Madison, WI) luciferase assay reagents were added to each well according to the manufacturer's instructions. Briefly, the BrightGlo reagent was diluted 1:1 with PBS and 100 µl of diluted reagent was added to each well. After 5 min of incubation at room temperature, luciferin emission was quantified with a luminometer. In this assay, the amount of test prodrug that yielded a 50% reduction in luciferase emission (IC50) was determined. This IC50 value may represent the antiviral activity of the prodrug itself, the activity of prodrug transformed into its active metabolized form, or a combination of the two.
In TABLES 3 through 12, a value of “+” indicates an IC50 of 10 μM or less in the specified assay; a value of “−” indicates an IC50 of greater than 10 μM in the specified assay.

[2] = test system: HCV NS5A protein in 9-13 replicon cells; test: Replicon quantitative Western blot assay (HEPC_REPLICON-ICWESTERN); type: cell-based; conditions: Hepatitis C virus, read-out: HEPC_REPLICON-ICWESTERN Result Value
Protocol: Alternatively, the inhibitory activity of the metabolically active agents of the prodrugs can be confirmed using a quantitative Western immunoblot assay utilizing antibodies specific for HCV non-structural proteins, such as NS3, NS4A NS5A and NS5B. In one embodiment of this assay, replicon cells are treated with varying concentrations of test prodrug to determine the concentration of the metabolically active agent of the test prodrug that yields a 50% reduction in the amount of a non-structural protein produced as compared to a control sample (IC50). A single non-structural protein may be quantified or multiple non-structural proteins may be quantified. Antibodies suitable for carrying out such immunoblot assays are available commercially (e.g., from BIODESIGN International, Saco, Me.).
Certain prodrugs of the invention, which may inhibit HCV translation or replication prior to metablism and/or are metabolized into active agents, were also tested for their ability to inhibit HCV replication using a quantitative Western blot analysis with antibodies specific for the HCV NS5A or other non-structural proteins. Actively dividing 9-13 replicon cells were seeded into 6-well plates at a density of 1×10^5 cells/well in a volume of 2 ml/well and incubated at 37° C. and 5% CO2 for 24 hours. Various concentrations of test prodrugs (in a volume of 10 ul) were added to the wells and the cells incubated for another 48 hours. Protein samples were prepared from the cultured cells, resolved on a SDS-PAGE gel and transferred to a nitrocellulose membrane. The membrane was blocked with 5% non-fat milk in PBS for 1 hour at room temperature. Primary antibody (anti NS5A antibody; BIODESIGN International, Saco, Me.) incubation was performed for 1 hour at room temperature, after which the membrane was washed 3 times (for 15 min per time) with PBST (PBS plus 0.1% Tween 20). Horseradish peroxidase conjugated secondary antibody incubation was performed for 1 hour at room temperature and the membrane was washed 3 times (for 15 min per time) with PBST. The membrane was then soaked in substrate solution (Pierce) and exposed to a film or quantified using an imager. In this assay, the amount of test prodrug that is believed to be transformed into an active agent under the given conditions that yielded a 50% reduction in the amount of NS5A protein translated as compared to a control sample (IC50) was determined.

[3] = Hepatitis C virus, Tables 3-12, 50% reduction in luciferase emission, 5-2 Luc replicon cells

In the case of `COc1cccc(Cl)c1-c1cc(-c2cccc(N(Cc3oc(=O)oc3C(C)C)C(=O)C(Cl)Cl)c2)on1` [Cpd. 37, 2,2-dichloro-N-[3′-[3′-(2′-chloro-6′-methoxyphenyl)-5′-isoxazoyl]phenyl]-N-[(5-isopropyl-1,3-dioxolene-2-one-4-yl)methylene] acetamide], the IC50 [1, 3] is reported as ≤ 10 µM.
`CCCc1oc(=O)oc1CN(C(=O)C(Cl)Cl)c1cccc(-c2cc(-c3c(Cl)cccc3Cl)no2)c1` [Cpd. 38, 2,2-dichloro-N-[3′-[3′-(2′,6′-dichlorophenyl)-5′-isoxazoyl]phenyl]-N-[(5-n-propyl-1,3-dioxolene-2-one-4-yl)methylene] acetamide] was tested, and the IC50 [1, 3] was ≤ 10 µM.
In the case of `O=C(C(Cl)Cl)N(Cc1oc(=O)oc1C1CCCCC1)c1cccc(-c2cc(-c3c(Cl)cccc3Cl)no2)c1` [Cpd. 39, 2,2-dichloro-N-[3′-[3′-(2′,6′-dichlorophenyl)-5′-isoxazoyl]phenyl]-N-[(5-cyclohexyl-1,3-dioxolene-2-one4-yl)methylene] acetamide], the IC50 [1, 3] is reported as ≤ 10 µM.
In the case of `CCc1oc(=O)oc1CN(C(=O)C(Cl)Cl)c1cccc(-c2cc(-c3c(Cl)cccc3Cl)no2)c1` [Cpd. 40], the IC50 [1, 3] is reported as ≤ 10 µM.
In the case of `Cc1oc(=O)oc1CN(C(=O)C(Cl)Cl)c1ccnc(-c2cc(-c3c(Cl)cccc3Cl)no2)c1` [Cpd. 41, 2,2-dichloro-N-[2′-[3′-(2′,6′-dichlorophenyl)-5′-isoxazoyl](4-pyridyl)]-N-[(5-methyl-1,3-dioxolene-2-one4-yl)methylene] acetamide], the IC50 [1, 3] is reported as ≤ 10 µM.
With `CC(C)c1oc(=O)oc1CN(C(=O)C(Cl)Cl)c1ccnc(-c2cc(-c3c(Cl)cccc3Cl)no2)c1` [Cpd. 42, 2,2-dichloro-N-[2′-[3′-(2′,6′-dichlorophenyl)-5′-isoxazoyl](4-pyridyl)]N-[(5-i-propyl-1,3-dioxolene-2-one4-yl)methylene] acetamide] the IC50 [1, 3] was ≤ 10 µM.
In the case of `CCCCCc1oc(=O)oc1CN(C(=O)C(Cl)Cl)c1ccnc(-c2cc(-c3c(Cl)cccc3Cl)no2)c1` [Cpd. 43, 2,2-dichloro-N-[2′-[3′-(2′,6′-dichlorophenyl)-5′-isoxazoyl](4pyridyl)]N-[(5-n-pentyl-1,3-dioxolene-2-one4yl)methylene] acetamide], the IC50 [1, 3] is reported as ≤ 10 µM.
In the case of `CCOC(=O)c1oc(=O)oc1CN(C(=O)C(Cl)Cl)c1cccc(-c2cc(-c3c(Cl)cccc3Cl)no2)c1` [Cpd. 44], the IC50 [1, 3] is reported as > 10 µM.
With `O=C(Nc1cccc(-c2cc(-c3c(Cl)cccc3Cl)no2)c1)C(Cl)(Cl)C(=O)N1CCOCC1` [Cpd. 50] the IC50 [1, 3] was ≤ 10 µM.
For `O=C(CCN(C(=O)C(Cl)Cl)c1cccc(-c2cc(-c3c(Cl)cccc3Cl)no2)c1)c1ccc(Cl)cc1` [Cpd. 104a, 2′,2′-Dichloro-N-[3-[3-(2,6-dichlorophenyl)-5-isoxazolyl]phenyl]-N-[2-(4-chlorobenzoyl)ethyl] Acetamide], the IC50 ([1]; Table 15) was ≤ 10 µM.
In the case of `CC(C)(C)OC(=O)C(Cl)(Cl)C(=O)Nc1ccnc(-c2cc(-c3c(Cl)cccc3Cl)no2)c1` [Cpd. 505], the IC50 [1, 3] is reported as ≤ 10 µM.
`CC(C)(C)OC(=O)c1ccc(CN(C(=O)C(Cl)Cl)c2ccnc(-c3cc(-c4c(Cl)cccc4Cl)no3)c2)cc1` [Cpd. 1021, tert-Butyl 4-((2,2-Dichloro-N-(2-(3-(2,6-dichlorophenyl)isoxazol-5-yl)pyridin-4-yl)acetamido)methyl)benzoate] showed an IC50 ([2]; Table 14) of 1 to 20 µM.
In the case of `O=C(C(Cl)Cl)N(Cc1ccc(OCCN2CCOCC2)cc1)c1ccnc(-c2cc(-c3c(Cl)cccc3Cl)no2)c1` [Cpd. 1022, 2,2-Dichloro-N-(2-(3-(2,6-dichlorophenyl)isoxazol-5-yl)pyridin-4-yl)-N-(4-(2-morpholinoethoxy)benzyl)acetamide], the IC50 ([2]; Table 14) is reported as < 1 µM.
In the case of `CCN1CCN(c2ccc(CN(C(=O)C(Cl)Cl)c3ccnc(-c4cc(-c5c(Cl)cccc5Cl)no4)c3)cc2)CC1` [Cpd. 1023, 2,2-Dichloro-N-(2-(3-(2,6-dichlorophenyl)isoxazol-5-yl)pyridin-4-yl)-N-(4-(4-ethylpiperazin-1-yl)benzyl)acetamide], the IC50 ([2]; Table 14) is reported as < 1 µM.
`O=C(CCN(C(=O)C(Cl)Cl)c1ccnc(-c2cc(-c3c(Cl)cccc3Cl)no2)c1)C1CCCN1` (stereo not shown) [Cpd. 1024, 2,2-Dichloro-N-(2-(3-(2,6-dichlorophenyl)isoxazol-5-yl)pyridin-4-yl)-N-(3-oxo-3-(pyrrolidin-2-yl)propyl)acetamide] was tested, and the IC50 ([2]; Table 14) was < 1 µM.
With `O=C(C(Cl)Cl)N(CCN1CCOCC1)c1ccnc(-c2cc(-c3c(Cl)cccc3Cl)no2)c1` [Cpd. 1026, 2,2-Dichloro-N-(2-(3-(2,6-dichlorophenyl)isoxazol-5-yl)pyridin4-yl)-N-(2-morpholinoethyl)acetamide] the IC50 ([2]; Table 14) was > 20 µM.
`CCCNC(=O)Oc1c(C)cc(CN(C(=O)C(Cl)Cl)c2ccnc(-c3cc(-c4c(Cl)cccc4Cl)no3)c2)cc1C` [Cpd. 1027, 4-((2,2-Dichloro-N-(2-(3-(2,6-dichlorophenyl)isoxazol-5-yl)pyridin4-yl)acetamido)methyl)-2,6-dimethylphenyl Propylcarbamate] was tested, and the IC50 ([2]; Table 14) was 1 to 20 µM.
For `O=C(C(Cl)Cl)N(COCCc1ccccn1)c1ccnc(-c2cc(-c3c(Cl)cccc3Cl)no2)c1` [Cpd. 1028, 2,2-Dichloro-N-(2-(3-(2,6-dichlorophenyl)isoxazol-5-yl)pyridin-4-yl)-N-((2-(pyridin-2-yl)ethoxy)methyl)acetamide], the IC50 ([2]; Table 14) was > 20 µM.
For `CCOP(=O)(OCC)Oc1ccc(CCCN(C(=O)C(Cl)Cl)c2ccnc(-c3cc(-c4c(Cl)cccc4Cl)no3)c2)cc1` [Cpd. 1038, 4-(3-(2,2-Dichloro-N-(2-(3-(2,6-dichlorophenyl)isoxazol-5-yl)pyridin-4-yl)acetamido)propyl)phenyl Diethyl Phosphate], the IC50 [2] was 1 to 20 µM.
`O=C(Nc1ccnc(-c2cc(-c3c(Cl)cccc3Cl)no2)c1)C(Cl)(Cl)C(=O)OC1CCCCC1` [compound 23] was tested, and the IC50 [1, 3] was ≤ 10 µM.
With `O=C(Nc1cccc(-c2cc(-c3c(N4CCOCC4)ccnc3Cl)no2)c1)C(Cl)(Cl)C(=O)OC1CCCCC1` [compound 52] the IC50 [1, 3] was > 10 µM.
`CCOC(=O)C(Cl)(Cl)C(=O)Nc1cccc(-c2cc(-c3c(N4CCOCC4)ccnc3Cl)no2)c1` [compound 54] was tested, and the IC50 [1, 3] was > 10 µM.
With `CC(C)(C)OC(=O)C(Cl)(Cl)C(=O)Nc1cccc(-c2cc(-c3c(N4CCOCC4)ccnc3Cl)no2)c1` [compound 56] the IC50 [1, 3] was > 10 µM.
For `Cc1oc(=O)oc1CN(C(=O)C(Cl)Cl)c1cccc(-c2cc(-c3c(Cl)cccc3Cl)no2)c1` [compound 901, 2,2-dichloro-N-[3′-[3′-(2′,6′-dichlorophenyl)-5′-isoxazoyl]phenyl]N-[(5-methyl-1,3-dioxolene-2-one4-yl)methylene] acetamide], the IC50 [1, 3] was ≤ 10 µM.
For `CC(C)(C)c1oc(=O)oc1CN(C(=O)C(Cl)Cl)c1cccc(-c2cc(-c3c(Cl)cccc3Cl)no2)c1` [compound 1007, 2,2-dichloro-N-[3′-[3′-(2′,6′-dichlorophenyl)-5′-isoxazoyl]phenyl]-N-[(5-t-butyl-1,3-dioxolene-2-one4yl)methylene]acetamide], the IC50 [1, 3] was ≤ 10 µM.
